Results published in patent US9617264B2, “2,7-diazaspiro[3.5]nonane compounds” (REMYND NV, priority 2014, dated 2017).
pEC50: −log10 of the molar value.

Tested on: M17_3SYN cells
Experiment: Paraquat-induced cytotoxicity (LDH) in α-synuclein over-expressing M17_3SYN neuroblastoma cells
Format: cell-based
Settings: Homo sapiens, Neuroblastoma cell, 48 h, 6 mM Paraquat, 2 days, LDH toxicity inhibition, read-out: SYN EC50
Description: A α-synuclein expression plasmid was constructed by subcloning the NcoI/XhoI fragment from 212T-SYN(WT) (Griffioen et al., Biochem Biophys Acta (2006) 1762(3):312-318) containing the cDNA of human wild type α-synuclein correspondingly into a standard mammalian expression vector pcDNA3.1 resulting in plasmid pcDNA3.1-SYNwt. Plasmids pcDNA3.1 and pcDNA3.1-SYNwt were transfected into human neuroblastoma cells (BE-M17; ATCC No. CRL-2267™) using lipofectamine reagent and subsequently, independent clonal cell lines with the plasmids stably integrated into the genome were selected by antibiotic resistance selection (Geneticin (G418)), resulting in cell lines M17.pcDNA3 and M17_3SYN. Overexpression of α-synuclein in the M17_3SYN cell line was confirmed by Western blot analysis.
Due to the high levels of α-synuclein, M17_3SYN cells were sensitive to paraquat, a well-known risk factor Parkinson's disease and of synuclein-dependent neuronal degeneration. Cytotoxicity of cells was measured by quantification of lactate dehydrogenase (LDH) levels. In dead cells, LDH leaked out of the cells into the medium due to a loss of plasma-membrane integrity.
Three days preceding the experiment, primary pre-cultures of M17.pcDNA3 (as possible control) and M17_3SYN cells were prepared, starting from a stock culture, at a density of 20.000-40.000 cells/cm2 in culture medium (Opti-MEM® Reduced Serum Medium with Phenol Red (Invitrogen, Cat. 31985-047) supplemented with 10% FCS, 1 mM sodium pyruvate, 1×NEAA, 500 μg/ml G418 and 0.5× antibiotic/antimycotic (ABAM)). 3 days later these primary pre-cultures were used as a starting point to make secondary pre-cultures at a density of 50.000-100.000 cells/cm^2. At the day of the experiment these secondary precultures were diluted to ˜0.5·10^6 cells/ml in detection medium (Opti-MEM® Reduced-Serum Medium without Phenol Red (Invitrogen, Cat. 11085-021) supplemented with 10% FCS, 1 mM sodium pyruvate, 1×NEAA, 500 μg/ml G418 and 0.5×ABAM) and 60 μL of this suspension was dispensed per well into a 96-well microtiter plate. After 3 hours of incubation at 37° C./5% CO2 an equal volume of detection medium containing a final concentration of 6 mM Paraquat was added and subsequently incubated for 2 days at 37° C./5% CO2. Then LDH activity was determined using the Promega Cytotox 96 Non-Radioactive cytotoxicity assay (Promega, Cat. G1780), according to the manufacturer's instructions. Cytotoxicity was defined as the ratio of LDH relative to the total LDH in the cells and supernatant.
The assay described above using the M17_3SYN cell line allowed screening compounds for their ability to decrease cytotoxicity in PQ-challenged cells. Compounds of the invention were tested for their ability to decrease toxicity at different concentrations, ranging from low non-effective concentrations to high effective concentrations. Afterwards, a dose-dependent inhibition curve was used to calculate the EC50. A compound was considered to be active in this test when it inhibited toxicity by more than 20% relative to untreated M17_3SYN cells at a concentration of […] or lower.

| SMILES | pEC50 |
| --- | --- |
| COc1ccc(S(=O)(=O)N2CCC3(CC2)CN(S(=O)(=O)c2ccc(F)cc2)C3)cc1 [Cmpd002, 2-((4-Fluorophenyl)sulfonyl)-7-((4-methoxyphenyl)sulfonyl)-2,7-diazaspiro[3.5]nonane] | 7.59 |
| COc1ccc(S(=O)(=O)N2CCC3(CC2)CN(C(=O)C(C)(C)c2ccccc2)C3)cc1 [Cmpd013, 1-(7-((4-Methoxyphenyl)sulfonyl)-2,7-diazaspiro[3.5]nonan-2-yl)-2-methyl-2-phenylpropan-1-one] | 7.35 |
| COc1ccc(S(=O)(=O)N2CCC3(CC2)CN(C(=O)C(C)(C)c2cccc(OC)c2)C3)cc1 [Cmpd016, 2-(3-Methoxyphenyl)-1-(7-((4-methoxyphenyl)sulfonyl)-2,7-diazaspiro[3.5]nonan-2-yl)-2-methylpropan-1-one] | 7.53 |
| COc1ccc(S(=O)(=O)N2CCC3(CC2)CN(c2nc(Cc4ccc(Cl)cc4)ns2)C3)cc1 [Cmpd032, 3-(4-Chlorobenzyl)-5-(7-((4-methoxyphenyl)sulfonyl)-2,7-diazaspiro[3.5]nonan-2-yl)-1,2,4-thiadiazole] | 6.77 |
| COc1ccc(S(=O)(=O)N2CCC3(CC2)CN(c2nc(Cc4ccc(F)c(F)c4)ns2)C3)cc1 [Cmpd033, 3-(3,4-Difluorobenzyl)-5-(7-((4-methoxyphenyl)sulfonyl)-2,7-diazaspiro[3.5]nonan-2-yl)-1,2,4-thiadiazole] | 6.48 |
| CCCCc1nsc(N2CC3(CCN(S(=O)(=O)c4ccc(OC)cc4)CC3)C2)n1 [Cmpd035, 3-Butyl-5-(7-((4-methoxyphenyl)sulfonyl)-2,7-diazaspiro[3.5]nonan-2-yl)-1,2,4-thiadiazole] | 6.49 |
| COc1ccc(S(=O)(=O)N2CCC3(CC2)CN(c2nc(Cc4cccc(C(F)(F)F)c4)ns2)C3)cc1 [Cmpd036, 5-(7-((4-Methoxyphenyl)sulfonyl)-2,7-diazaspiro[3.5]nonan-2-yl)-3-(3-(trifluoromethyl)benzyl)-1,2,4-thiadiazole] | 6.30 |
| CSc1ccc(S(=O)(=O)N2CCC3(CC2)CN(c2nc(Cc4ccc(F)cc4)ns2)C3)cc1 [Cmpd041, 3-(4-Fluorobenzyl)-5-(7-((4-(methylthio)phenyl)sulfonyl)-2,7-diazaspiro[3.5]nonan-2-yl)-1,2,4-thiadiazole] | 6.75 |
| CCOc1ccc(S(=O)(=O)N2CCC3(CC2)CN(S(=O)(=O)c2ccc(OC)cc2)C3)cc1 [Cmpd046, 7-((4-Ethoxyphenyl)sulfonyl)-2-((4-methoxyphenyl)sulfonyl)-2,7-diazaspiro[3.5]nonane] | 8.48 |
| COc1ccc(S(=O)(=O)N2CCC3(CC2)CN(c2nc4ccc(Cl)cc4s2)C3)cc1 [Cmpd052, 6-Chloro-2-(7-((4-methoxyphenyl)sulfonyl)-2,7-diazaspiro[3.5]nonan-2-yl)benzo[d]thiazole] | 6.33 |
| O=S(=O)(c1ccc(OC(F)F)cc1)N1CCC2(CC1)CN(c1nc3ccc(Cl)cc3s1)C2 [Cmpd054, 6-Chloro-2-(7-((4-(difluoromethoxy)phenyl)sulfonyl)-2,7-diazaspiro[3.5]nonan-2-yl)benzo[d]thiazole] | 6.39 |
| CSc1ccc(S(=O)(=O)N2CCC3(CC2)CN(c2nc4ccc(Cl)cc4s2)C3)cc1 [Cmpd055, 6-Chloro-2-(7-((4-(methylthio)phenyl)sulfonyl)-2,7-diazaspiro[3.5]nonan-2-yl)benzo[d]thiazole] | 6.48 |
| COc1ccc(S(=O)(=O)N2CCC3(CC2)CN(c2nc(Cc4ccc(F)cc4)ns2)C3)cc1 [Cmpd057, 3-(4-Fluorobenzyl)-5-(7-((4-methoxyphenyl)sulfonyl)-2,7-diazaspiro[3.5]nonan-2-yl)-1,2,4-thiadiazole] | 8.72 |
| COc1ccc(S(=O)(=O)N2CCC3(CC2)CN(c2nc(Cc4ccc(F)cc4)ns2)C3)cc1OC [Cmpd061, 5-(7-((3,4-Dimethoxyphenyl)sulfonyl)-2,7-diazaspiro[3.5]nonan-2-yl)-3-(4-fluorobenzyl)-1,2,4-thiadiazole] | 6.49 |
| COc1ccc(C)cc1S(=O)(=O)N1CCC2(CC1)CN(c1nc(Cc3ccc(F)cc3)ns1)C2 [Cmpd062, 3-(4-Fluorobenzyl)-5-(7-((2-methoxy-5-methylphenyl)sulfonyl)-2,7-diazaspiro[3.5]nonan-2-yl)-1,2,4-thiadiazole] | 6.47 |
| O=S(=O)(c1cccc(C(F)(F)F)c1)N1CCC2(CC1)CN(c1nc(Cc3ccc(F)cc3)ns1)C2 [Cmpd064, 3-(4-Fluorobenzyl)-5-(7-((3-(trifluoromethyl)phenyl)sulfonyl)-2,7-diazaspiro[3.5]nonan-2-yl)-1,2,4-thiadiazole] | 5.97 |
| Cc1cccc(S(=O)(=O)N2CCC3(CC2)CN(c2nc(Cc4ccc(F)cc4)ns2)C3)c1 [Cmpd066, 3-(4-Fluorobenzyl)-5-(7-(m-tolylsulfonyl)-2,7-diazaspiro[3.5]nonan-2-yl)-1,2,4-thiadiazole] | 6.40 |
| CCc1ccc(S(=O)(=O)N2CCC3(CC2)CN(c2nc(Cc4ccc(F)cc4)ns2)C3)cc1 [Cmpd068, 5-(7-((4-Ethylphenyl)sulfonyl)-2,7-diazaspiro[3.5]nonan-2-yl)-3-(4-fluorobenzyl)-1,2,4-thiadiazole] | 6.40 |
| Cc1ccccc1S(=O)(=O)N1CCC2(CC1)CN(c1nc(Cc3ccc(F)cc3)ns1)C2 [Cmpd069, 3-(4-Fluorobenzyl)-5-(7-(o-tolylsulfonyl)-2,7-diazaspiro[3.5]nonan-2-yl)-1,2,4-thiadiazole] | 6.74 |
| O=S(=O)(c1cccc(F)c1)N1CCC2(CC1)CN(c1nc(Cc3ccc(F)cc3)ns1)C2 [Cmpd071, 3-(4-Fluorobenzyl)-5-(7-((3-fluorophenyl)sulfonyl)-2,7-diazaspiro[3.5]nonan-2-yl)-1,2,4-thiadiazole] | 6.36 |
| COc1ccc(OC)c(S(=O)(=O)N2CCC3(CC2)CN(c2nc(Cc4ccc(F)cc4)ns2)C3)c1 [Cmpd072, 5-(7-((2,5-Dimethoxyphenyl)sulfonyl)-2,7-diazaspiro[3.5]nonan-2-yl)-3-(4-fluorobenzyl)-1,2,4-thiadiazole] | 6.67 |
| O=S(=O)(c1cc(F)ccc1F)N1CCC2(CC1)CN(c1nc(Cc3ccc(F)cc3)ns1)C2 [Cmpd073, 5-(7-((2,5-Difluorophenyl)sulfonyl)-2,7-diazaspiro[3.5]nonan-2-yl)-3-(4-fluorobenzyl)-1,2,4-thiadiazole] | 6.66 |
| O=S(=O)(c1c(F)cccc1F)N1CCC2(CC1)CN(c1nc(Cc3ccc(F)cc3)ns1)C2 [Cmpd074, 5-(7-((2,6-Difluorophenyl)sulfonyl)-2,7-diazaspiro[3.5]nonan-2-yl)-3-(4-fluorobenzyl)-1,2,4-thiadiazole] | 6.59 |
| COc1cccc(S(=O)(=O)N2CCC3(CC2)CN(c2nc(Cc4ccc(F)cc4)ns2)C3)c1 [Cmpd076, 3-(4-Fluorobenzyl)-5-(7-((3-methoxyphenyl)sulfonyl)-2,7-diazaspiro[3.5]nonan-2-yl)-1,2,4-thiadiazole] | 6.40 |
| Cc1ccc(F)cc1S(=O)(=O)N1CCC2(CC1)CN(c1nc(Cc3ccc(F)cc3)ns1)C2 [Cmpd077, 5-(7-((5-Fluoro-2-methylphenyl)sulfonyl)-2,7-diazaspiro[3.5]nonan-2-yl)-3-(4-fluorobenzyl)-1,2,4-thiadiazole] | 6.63 |
| COc1ccccc1S(=O)(=O)N1CCC2(CC1)CN(c1nc(Cc3ccc(F)cc3)ns1)C2 [Cmpd080, 3-(4-Fluorobenzyl)-5-(7-((2-methoxyphenyl)sulfonyl)-2,7-diazaspiro[3.5]nonan-2-yl)-1,2,4-thiadiazole] | 6.30 |
| O=S(=O)(c1cc(F)cc(F)c1)N1CCC2(CC1)CN(c1nc(Cc3ccc(F)cc3)ns1)C2 [Cmpd083, 5-(7-((3,5-Difluorophenyl)sulfonyl)-2,7-diazaspiro[3.5]nonan-2-yl)-3-(4-fluorobenzyl)-1,2,4-thiadiazole] | 6.43 |
| COC(=O)c1cccc(S(=O)(=O)N2CCC3(CC2)CN(c2nc(Cc4ccc(F)cc4)ns2)C3)c1 [Cmpd084, Methyl 3-((2-(3-(4-fluorobenzyl)-1,2,4-thiadiazol-5-yl)-2,7-diazaspiro[3.5]nonan-7-yl)sulfonyl)benzoate] | 6.42 |
